Laboratory results reported in the supplement of paper PMC7017272.
± gives the standard deviation of the averaged measurements.

Experiments:
Conditions in all cases: treatment time: 3 days
UT-SCC-24A [1] = test: drug sensitivity score (DSS); higher = more sensitive
Method: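 HNSCC cell lines (500 cells/well, 384-well) were cultured on plastic, on top of (2D) or embedded (3D) in Matrigel or human leiomyoma matrix Myogel (500 ug/mL; Myogel 3D mixed with rat collagen I). Cells were treated for 3 days with 5 ten-fold concentrations of each drug, and viability was read by CellTiter-Glo. Suffixes _1/_2/_3 on drug names are replicates.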

UT-SCC-106A [2] = test: maximal % inhibition of viability relative to DMSO; higher = stronger effect
Outline: (§1)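 Three growth formats were used for HPV-negative HNSCC cell lines in 384-well plates at 500 cells/well: bare plastic, wells coated with Matrigel or Myogel (500 µg/mL), and embedding in Matrigel or Myogel plus rat collagen I. Compounds were added at five 10-fold concentrations, and after 3 days CellTiter-Glo 2.0 luminescence was recorded and normalised to vehicle (0.1% DMSO) and cell-killing control wells. IC50, maximal inhibition and drug sensitivity score came from percent-inhibition dose–response fitting in the FIMM pipeline.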

UT-SCC-14 [3] = test: as above
Outline: as §1

UT-SCC-28 [4] = test: as above
Outline: as §1

UT-SCC-24A [5] = test: maximal % inhibition of viability relative to DMSO; higher = stronger effect
Method: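 HNSCC cell lines (500 cells/well, 384-well) were cultured on plastic, on top of (2D) or embedded (3D) in Matrigel or human leiomyoma matrix Myogel (500 ug/mL; Myogel 3D mixed with rat collagen I). Cells were treated for 3 days with 5 ten-fold concentrations of each drug, and viability was read by CellTiter-Glo. Viability was normalised to DMSO (0% inhibition) and 100 uM benzethonium chloride (100% inhibition) controls and fitted with the FIMM DSRT pipeline to give IC50 (nM), maximal % inhibition and the drug sensitivity score (DSS). Suffixes _1/_2/_3 on drug names are replicates.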

UT-SCC-106A [6] = test: drug sensitivity score (DSS); higher = more sensitive; extreme values may be limits of the assay
Outline: as §1

UT-SCC-14 [7] = test: as above
Outline: as §1

UT-SCC-24B = test: as above
Outline: as §1

UT-SCC-28 [8] = test: as above
Outline: as §1

UT-SCC-40 = test: as above
Outline: as §1

UT-SCC-42A = test: as above
Outline: as §1

UT-SCC-42B = test: as above
Outline: as §1

UT-SCC-44 = test: as above
Outline: as §1

UT-SCC-73 = test: as above
Outline: as §1

UT-SCC-81 = test: as above
Outline: as §1

UT-SCC-8 = test: as above
Outline: as §1

[9] = culture condition: embedded in Matrigel
[10] = culture condition: embedded in Myogel + collagen I
[11] = culture condition: on top of Matrigel
[12] = culture condition: on top of Myogel
[13] = culture condition: plastic 2D (no matrix)

C#Cc1cccc(Nc2ncnc3cc(OCCOC)c(OCCOC)cc23)c1 [Erlotinib]
drug sensitivity score (UT-SCC-24A [1]; [9]): 8.87 ± 3.6 DSS
drug sensitivity score (UT-SCC-24A [1]; [10]): 1.63 ± 1 DSS
drug sensitivity score (UT-SCC-24A [1]; [11]): 5.7 ± 1.7 DSS
drug sensitivity score (UT-SCC-24A [1]; [12]): 0 DSS
drug sensitivity score (UT-SCC-24A [1]; [13]): 3.03 ± 0.93 DSS
maximal % inhibition of viability (UT-SCC-106A [2]; [9]): 25.1 ± 5.3%
maximal % inhibition of viability (UT-SCC-106A [2]; [10]): 10.4 ± 0.53%
maximal % inhibition of viability (UT-SCC-106A [2]; [11]): 23.6 ± 11%
maximal % inhibition of viability (UT-SCC-106A [2]; [12]): 2.57 ± 2.4%
maximal % inhibition of viability (UT-SCC-106A [2]; [13]): 19.6 ± 7.3%
maximal % inhibition of viability (UT-SCC-14 [3]; [9]): 29.5 ± 7.8%
maximal % inhibition of viability (UT-SCC-14 [3]; [10]): 9.87 ± 4.7%
maximal % inhibition of viability (UT-SCC-14 [3]; [11]): 9.6 ± 10%
maximal % inhibition of viability (UT-SCC-14 [3]; [12]): 11.6 ± 10%
maximal % inhibition of viability (UT-SCC-14 [3]; [13]): 8.77 ± 15%
maximal % inhibition of viability (UT-SCC-28 [4]; [9]): 11.3 ± 9.9%
maximal % inhibition of viability (UT-SCC-28 [4]; [10]): 14 ± 5.9%
maximal % inhibition of viability (UT-SCC-28 [4]; [11]): 12.2 ± 3.6%
maximal % inhibition of viability (UT-SCC-28 [4]; [13]): 8.37 ± 7.3%
maximal % inhibition of viability (UT-SCC-24A [5]; [9]): 65.2 ± 8%
maximal % inhibition of viability (UT-SCC-24A [5]; [10]): 27.5 ± 6.3%
maximal % inhibition of viability (UT-SCC-24A [5]; [11]): 50.9 ± 7.2%
maximal % inhibition of viability (UT-SCC-24A [5]; [12]): 7.53 ± 1.6%
maximal % inhibition of viability (UT-SCC-24A [5]; [13]): 30.6 ± 5%
drug sensitivity score (UT-SCC-106A [6]; [9]): 1.43 ± 0.8 DSS
drug sensitivity score (UT-SCC-106A [6]; [10]): 0 DSS
drug sensitivity score (UT-SCC-106A [6]; [11]): 1.53 ± 2.1 DSS
drug sensitivity score (UT-SCC-106A [6]; [12]): 0 DSS
drug sensitivity score (UT-SCC-106A [6]; [13]): 1.97 ± 1.7 DSS
drug sensitivity score (UT-SCC-14 [7]; [9]): 1.73 ± 0.57 DSS
drug sensitivity score (UT-SCC-14 [7]; [10]): 0.0333 ± 0.058 DSS
drug sensitivity score (UT-SCC-14 [7]; [11]): 0.4 ± 0.69 DSS
drug sensitivity score (UT-SCC-14 [7]; [12]): 0.733 ± 1.3 DSS
drug sensitivity score (UT-SCC-14 [7]; [13]): 0.9 ± 1.6 DSS
drug sensitivity score (UT-SCC-24B; [9]): 11.3 ± 1 DSS
drug sensitivity score (UT-SCC-24B; [10]): 8.03 ± 3 DSS
drug sensitivity score (UT-SCC-24B; [11]): 10.4 ± 0.51 DSS
drug sensitivity score (UT-SCC-24B; [12]): 3.97 ± 0.21 DSS
drug sensitivity score (UT-SCC-24B; [13]): 15.2 ± 1.4 DSS
drug sensitivity score (UT-SCC-28 [8]; [9]): 0 DSS
drug sensitivity score (UT-SCC-28 [8]; [10]): 1.27 ± 2.2 DSS
drug sensitivity score (UT-SCC-28 [8]; [11]): 0 DSS
drug sensitivity score (UT-SCC-28 [8]; [13]): 0 DSS
drug sensitivity score (UT-SCC-40; [9]): 0.333 ± 0.31 DSS
drug sensitivity score (UT-SCC-40; [10]): 1.97 ± 3.4 DSS
drug sensitivity score (UT-SCC-40; [11]): 0 DSS
drug sensitivity score (UT-SCC-40; [12]): 0 DSS
drug sensitivity score (UT-SCC-40; [13]): 0.0333 ± 0.058 DSS
drug sensitivity score (UT-SCC-42A; [9]): 1.47 ± 2 DSS
drug sensitivity score (UT-SCC-42A; [10]): 0 DSS
drug sensitivity score (UT-SCC-42A; [11]): 2.73 ± 2.8 DSS
drug sensitivity score (UT-SCC-42A; [12]): 0.1 ± 0.1 DSS
drug sensitivity score (UT-SCC-42A; [13]): 1.73 ± 1.5 DSS
drug sensitivity score (UT-SCC-42B; [9]): 2.4 ± 1.4 DSS
drug sensitivity score (UT-SCC-42B; [11]): 1 ± 1.7 DSS
drug sensitivity score (UT-SCC-42B; [12]): 0 DSS
drug sensitivity score (UT-SCC-42B; [13]): 0 DSS
drug sensitivity score (UT-SCC-44; [9]): 0 DSS
drug sensitivity score (UT-SCC-44; [10]): 0.133 ± 0.23 DSS
drug sensitivity score (UT-SCC-44; [11]): 0 DSS
drug sensitivity score (UT-SCC-44; [12]): 0.0667 ± 0.12 DSS
drug sensitivity score (UT-SCC-44; [13]): 0.0667 ± 0.12 DSS
drug sensitivity score (UT-SCC-73; [9]): 0.3 ± 0.3 DSS
drug sensitivity score (UT-SCC-73; [10]): 1.17 ± 2 DSS
drug sensitivity score (UT-SCC-73; [11]): 0 DSS
drug sensitivity score (UT-SCC-73; [12]): 0.233 ± 0.4 DSS
drug sensitivity score (UT-SCC-73; [13]): 0 DSS
drug sensitivity score (UT-SCC-81; [9]): 10.4 ± 3.8 DSS
drug sensitivity score (UT-SCC-81; [10]): 0 DSS
drug sensitivity score (UT-SCC-81; [11]): 5.17 ± 2.1 DSS
drug sensitivity score (UT-SCC-81; [12]): 0 DSS
drug sensitivity score (UT-SCC-81; [13]): 0.2 ± 0.27 DSS
drug sensitivity score (UT-SCC-8; [9]): 7.57 ± 0.46 DSS
drug sensitivity score (UT-SCC-8; [10]): 0 DSS
drug sensitivity score (UT-SCC-8; [11]): 5.63 ± 0.65 DSS
drug sensitivity score (UT-SCC-8; [12]): 3.4 ± 2.5 DSS
drug sensitivity score (UT-SCC-8; [13]): 4.2 ± 1.1 DSS
